From article PMC6073479, “Cecropin A Modulates Tight Junction-Related Protein Expression and Enhances the Barrier Function of Porcine Intestinal Epithelial Cells by Suppressing the MEK/ERK Pathway” (International Journal of Molecular Sciences, 2018)
No end group written: not given here.

What was measured:
[1] = system: gram-negative bacterial strains, such as E. coli, Salmonella and Pseudomonas aeruginosa; assay: MIC/MBC test; assay type: cell-based; settings: gram-negative strains versus Staphylococcus aureus
Description: The Escherichia coli ATCC 35401, ATCC 35150, ATCC 25922, and SSI 82000, Pseudomonas aeruginosa ATCC 9027 and ATCC 27853, Salmonella ATCC13312 and ATCC9120, Salmonella typhimurium ATCC 14028, and Staphylococcus aureus ATCC 29213 strains were purchased from Guangdong Culture Collection Center. The Escherichia coli W25K strain was isolated from a piglet with diarrhea as described previously. The strains were cultured in LB medium to logarithmic growth period (OD = 0.5) and then were transferred to Mueller-Hinton Broth (MHB) medium for the minimum inhibitory concentration (MIC) or minimum bactericidal concentration (MBC) test.
The MIC test was assessed according to the process of the Clinical and Laboratory Standards Institute. The bacterial strains were diluted with MHB medium, and the concentration was 5 × 10^5 CFU/mL. Then, 180 μL bacterial suspension was transferred to 96-well cell plates. […] Then, the bacteria were cultured at 37 °C for 8 h.

IL-6 mRNA expression = assay: qPCR of IL-6 mRNA in IPEC-J2 cells cocultured with E. coli; assay type: cell-based, porcine; settings: IPEC-J2 cells after coculture with E. coli, treatment for 48 h, compared to non-treated cells, n = 6
Description: (§1) Total RNA was extracted using TRIzol reagent according to the manufacturer’s instructions. Concentration and purity of RNA was checked by using a NanoDrop 2000. cDNA was generated from 1 μg total RNA using a First Strand cDNA Synthesis Kit (Thermo Scientific, Waltham, MA, USA). Quantitative PCR (qPCR) was performed to quantify mRNA expression levels of IL-6, IL-8 and TNF-α relative to that of a housekeeping gene, glyceraldehyde-3-phosphate dehydrogenase (GAPDH) by using SYBR Green mix (ABI) according to the manufacturer’s instructions.

[2] = system: ZO-1, claudin-1 and occludin membrane distribution; assay: Cell immunofluorescence of tight junction proteins; assay type: cell-based, porcine; settings: IPEC-J2 cells, 400×, n = 3
Description: (§2) To test the expression and location of tight junction proteins (ZO-1, occludin and claudin-1) and the cytoskeleton (F-actin), cell immunofluorescence was used. The IPEC-J2 cells were cultured and became confluent on the slide. After treatment, the cells were washed with PBS three times, fixed with 4% polyoxymethylene for 30 min, and then washed by PBS again three times. For F-actin staining, 0.5% Triton X-100 was added for 20 min. After that, 0.5% bovine serum albumin was added for 1 h, and then the primary antibodies were added and incubated with the cells at 4 °C overnight. The slides were then washed with PBST three times, and the FITC-labeled secondary antibody was added for 2 h. At last, the cell nuclei were stained by using DAPI (Santa Cruz Biotechnology, Dallas, TX, USA). The slides were then observed by using a fluorescence microscope. Primary antibodies including occludin (Abcam, Cambridge, UK), claudin-1 (CST, Danvers, MA, USA) and ZO-1 (Thermo Fisher Scientific, Waltham, MA, USA) were used. For staining F-actin, FITC-phalloidin (Sigma-Aldrich, St. Louis, MI, USA) was used.

TNF-α mRNA expression = assay: qPCR of TNF-α mRNA in IPEC-J2 cells cocultured with E. coli; assay type: cell-based, porcine; settings: IPEC-J2 cells after coculture with E. coli, treatment for 48 h, compared to non-treated cells, n = 6
Description: as §1

[3] = system: claudin-1 protein expression; assay: Western blotting of claudin-1; assay type: cell-based, porcine; settings: IPEC-J2 cells, versus control group, n = 3
Description: (§3) The total protein was extracted with lysis buffer. The concentration of protein was tested by using a BCA protein assay kit (Thermo Scientific, Waltham, MA, USA) and mixed with 5× loading buffer. 20 μg protein sample was loaded in each well. The supernatant was then separated by 10% SDS-PAGE and transferred onto a PVDF membrane (Millipore, Burlington, MA, USA). After blocking with 5% skimmed milk powder, the membrane was incubated with the appropriate primary antibodies overnight at 4 °C, followed by incubation with a horseradish peroxidase (HRP)-conjugated secondary antibody for 2 h. Bands were detected using an ECL Western Blotting Substrate (Thermo Scientific, Waltham, MA, USA). Band intensity was quantified using ImageJ software. The primary antibodies including β-actin, p-MEk, MEK, p-ERK, ERK, CDX2 were purchased from Cell Signaling Technology (CST, Danvers, MA, USA).

[4] = system: E. coli adherence to IPEC-J2 cells; assay: Quantifying adherent bacteria (CFU); assay type: cell-based, Escherichia coli; settings: n = 3
Description: To calculate the number of adherent E. coli, E. coli were cocultured with IPEC-J2 cells in DMEM/high-glucose medium (no penicillin/streptomycin, no FBS). Then, the cells were washed with PBS six times and lysed with 1% Triton X-100 for 20 min at room temperature. Next, 5 μL lysates were plated on MacConkey agar plates overnight. The total number of bacteria was quantified as CFUs.

ERK phosphorylation = assay: Western blotting of p-ERK(1/2)/ERK(1/2); assay type: cell-based, porcine; settings: IPEC-J2 cells, versus control group, p < 0.01, n = 3
Description: as §3

ZO-1 protein expression = assay: Western blotting of ZO-1; assay type: cell-based, porcine; settings: IPEC-J2 cells, versus control group, n = 3
Description: as §3

[5] = system: occludin protein expression; assay: Western blotting of occludin; assay type: cell-based, porcine; settings: IPEC-J2 cells, versus control group, n = 3
Description: as §3

IL-8 mRNA expression = assay: qPCR of IL-8 mRNA in IPEC-J2 cells cocultured with E. coli; assay type: cell-based, porcine; settings: IPEC-J2 cells after coculture with E. coli, treatment for 48 h, compared to non-treated cells, n = 6
Description: as §1

IPEC-J2 cell monolayer [6] = assay: Transepithelial electrical resistance (TER) measurement; assay type: cell-based, porcine
Description: To evaluate the barrier integrity of IPEC-J2 cells, the transepithelial resistance (TER) and was measured, and a permeability assay was performed. The initial TER was tested before the cells were seeded. IPEC-J2 cells were then seeded in a Transwell membrane insert ([…], 0.4 μm pore size, Corning) at a density of 7 × 10^5 cells/well. Then, 200 μL and 500 μL medium was added to the apical and basal compartments, respectively. Cecropin A (12.5 μg/mL) was added to the apical and basal compartments. The TER values were measured every day by using an ohm-meter fitted with chopstick electrodes (Millipore ESR-2; Burlington, MA, USA). Before each test, the plates were placed at room temperature for 30 min. The TER was calculated by using the following equation:TER (Ω·cm^2) = (TER − TERinitial) × 0.3

IPEC-J2 cells = settings: MTT; 1.5–12.5 μg/mL, 8 h; compared to control group
Description: IPEC-J2 cells were cultured at 37 °C in 100% humidity and 5% CO2 conditions with DMEM/F12 (Thermo, Waltham, MA, USA) supplemented with 5% fetal bovine serum (Gibco, Waltham, MA, USA) and 1% penicillin/streptomycin.
Thiazolyl blue tetrazolium bromide (MTT) was purchased from Sigma-Aldrich (St. Louis, MI, USA). The MTT was dissolved in PBS (5 mg/mL). The cytotoxicity of AMPs to IPEC-J2 cells was tested by using an MTT assay. A density of 1 × 10^5 cells in 180 μL medium per well was seeded in 96-well plates (Corning, New York, NY, USA), and then 20 μL AMPs was added. The final concentrations were 200, 100, 50, 25, 12.5, 6.25, 3.125, were 1.56 μg/mL. After 8 h culture, 20 μL MTT was added, and then the cells were continued to culture for 4 h. The supernatant was discarded, and 150 μL DMSO was added. After 30 min shaking at room temperature, the absorbance was measured at a wavelength of 490 nm. The cell viability was calculated by using the following equation:Cell viability = (ODControl − ODAMP)/ODControl × 100%

CDX2 protein level = assay: Western blotting of CDX2; assay type: cell-based, porcine; settings: IPEC-J2 cells, compared with control group, p < 0.001, n = 3
Description: as §3

F-actin polymerization = assay: Cell immunofluorescence of F-actin (FITC-phalloidin); assay type: cell-based, porcine; settings: IPEC-J2 cells; FITC-phalloidin staining, 400×; n = 3
Description: as §2

MEK phosphorylation = assay: Western blotting of p-MEK/MEK; assay type: cell-based, porcine; settings: IPEC-J2 cells, versus control group, p < 0.01, n = 3
Description: as §3

IPEC-J2 cell monolayer [7] = assay: FITC-dextran paracellular permeability assay; assay type: cell-based, porcine; settings: 12.5 μg/mL; 48 h and 72 h; FITC-dextran 5 mg/mL apical, 2 h; fluorescence 480/520 nm; p < 0.05; n = 6
Description: To evaluate the permeability of the monolayer intestinal cells, FITC-dextran was used. FITC-dextran (Sigma-Aldrich, St. Louis, MO, USA) was dissolved in PBS at 5 mg/mL. After the medium was discarded, 200 μL FITC-dextran was added to the apical compartment, and 500 μL PBS was added to the basal compartment and cultured for 2 h. Then, 100 μL liquid from each well was transferred to 96-well plates, and the […] was read at 480 nm excitation and 520 nm emission wavelengths. Then, the content of the FITC-dextran in the basal compartment was calculated using a standard curve.

Compound	antibacterial activity against E. coli, Salmonella typhimurium and Pseudomonas aeruginosa compared with Staphylococcus aureus [1]	IL-6 mRNA expression (IL-6 mRNA expression)	membrane distribution of ZO-1, claudin-1 and occludin (TJs) [2]	TNF-α mRNA expression (TNF-α mRNA expression)	claudin-1 protein level [3]	E. coli adherence (CFU of adherent bacteria) ([4]; IPEC-J2 cells pretreated with 3.125, 6.25 and 12.5 μg/mL for 48 h)	ERK phosphorylation (ERK phosphorylation)	ZO-1 protein level (ZO-1 protein expression)	occludin protein level [5]	IL-8 mRNA expression (IL-8 mRNA expression)	TER values (IPEC-J2 cell monolayer [6]; IPEC-J2 monolayer on Transwell, 12.5 μg/mL apical and basal, at 48 h and 72 h, compared to control cells, p < 0.01, n = 6)	TER values (IPEC-J2 cell monolayer [6]; inhibitor experiment (Figure 5), 24 and 48 h, compared with control group, n = 3)	IPEC-J2 cell viability (IPEC-J2 cells)	CDX2 protein level (CDX2 protein level)	F-actin polymerization / distribution (F-actin polymerization)	MEK phosphorylation (MEK phosphorylation)	permeability of the IPEC-J2 cell monolayer (4 kDa FITC-dextran in basal compartment) (IPEC-J2 cell monolayer [7])	adherence of E. coli ([4]; IPEC-J2 cells, inhibitor 10 μM for 48 h, compared to cecropin A group)
KWKLFKKIEKVGQNIRDGIIKAGPAVAVVGQATQIAK-NH2 (C-terminus assumed) [cecropin A]	much higher	downregulated	much more polymerized at the cell–cell boundary	downregulated	significantly upregulated	reduced E. coli adherence in a dose-dependent manner	downregulates	significantly upregulated	significantly upregulated	downregulated	significantly increased	significantly higher	not reduced	upregulated	much more polymerized at the cell–cell boundary	downregulates	reduces the permeability	–
O=C(NOCC1CC1)c1ccc(F)c(F)c1Nc1ccc(I)cc1Cl [PD184352]	–	–	–	–	–	–	–	–	–	–	–	–	–	–	–	–	–	reduced
